Assay [1] concerns LNCaP prostate cancer cell. The experiment in a line: LNCaP cell viability (CellTiter-Glo). In kind it is cell-based. The conditions noted are these: Homo sapiens, 72 h, LNCaP cell viability, 3 days, CellTiter-Glo. On the procedure: LNCaP cells seeded in 96-well plates were treated with 10 μM GNE-781 or selected bivalent compounds, i.e. P-001, P-002, and P-019, following a 12-point 3-fold serial dilution. Three days after treatment, cell viability was determined using the CellTiter-Glo kit (Promega) following manufacturer's instructions. Cell viability was normalized to the mean values of 3 replicates of untreated cells. Dose-dependent response was analyzed following the least-squares non-linear regression method using the GraphPad Prism 5.0 software.
LNCaP (clone FGC), 22RV1 and other cells were cultured at 37° C. with 5% CO 2 in RPMI 1640 Medium supplemented with 10% fetal bovine serum. Cells were authenticated using the short tandem repeat (STR) assays. Mycoplasma test results were negative.
Cells were seeded at a density of 5000 cells per well in 96-well assay plates and treated with test compounds following a 12-point 3-fold serial dilution. Three days later, cell viability was determined using the CellTiter-Glo assay kit according to the manufactureR's instructions. The dose-response curves were determined and IC50 values were calculated using the GraphPad Prism software following a nonlinear regression (least squares fit) method.

The next assay has as its target P300 (Homo sapiens, UniProt Q09472). The experiment in a line: percentage of inhibition (degradation) of p300 at 10 nM, Tables 2-4. In kind it is cell-based. Also on record: LNCaP or 22RV1 cells that express CBP/P300 proteins were treated with GNE-781 or the bivalent compounds; endogenous in cells; host or cells: LNCaP or 22RV1 (not given). The conditions noted are these: for inhibition at 0.01 µM: read-out: Degradation (10 nM). As for the experimental part: Cultured cells or tissue chunks were washed with cold PBS once and lysed in cold RIPA buffer supplemented with protease inhibitors and phosphatase inhibitors (Beyotime Biotechnology). The solutions were then incubated at 4° C. for 30 minutes with gentle agitation to fully lyse cells. Cell lysates were centrifuged at 13,000 rpm for 10 minutes at 4° C. and pellets were discarded. Total protein concentrations in the lysates were determined by BCA assays (Beyotime Biotechnology). Cell lysates were mixed with Laemmli loading buffer to 1 X and heated at 99° C. for 5 min. Proteins were resolved on SDS-PAGE and visualized by chemiluminescence. Images were taken by a ChemiDoc MP Imaging system (Bio-Rad). Protein bands were quantitated using the accompanied software provided by Bio-Rad.

Read-outs that look alike come from different tables or passages of the source.

P300, sequence (Q09472 whole entry): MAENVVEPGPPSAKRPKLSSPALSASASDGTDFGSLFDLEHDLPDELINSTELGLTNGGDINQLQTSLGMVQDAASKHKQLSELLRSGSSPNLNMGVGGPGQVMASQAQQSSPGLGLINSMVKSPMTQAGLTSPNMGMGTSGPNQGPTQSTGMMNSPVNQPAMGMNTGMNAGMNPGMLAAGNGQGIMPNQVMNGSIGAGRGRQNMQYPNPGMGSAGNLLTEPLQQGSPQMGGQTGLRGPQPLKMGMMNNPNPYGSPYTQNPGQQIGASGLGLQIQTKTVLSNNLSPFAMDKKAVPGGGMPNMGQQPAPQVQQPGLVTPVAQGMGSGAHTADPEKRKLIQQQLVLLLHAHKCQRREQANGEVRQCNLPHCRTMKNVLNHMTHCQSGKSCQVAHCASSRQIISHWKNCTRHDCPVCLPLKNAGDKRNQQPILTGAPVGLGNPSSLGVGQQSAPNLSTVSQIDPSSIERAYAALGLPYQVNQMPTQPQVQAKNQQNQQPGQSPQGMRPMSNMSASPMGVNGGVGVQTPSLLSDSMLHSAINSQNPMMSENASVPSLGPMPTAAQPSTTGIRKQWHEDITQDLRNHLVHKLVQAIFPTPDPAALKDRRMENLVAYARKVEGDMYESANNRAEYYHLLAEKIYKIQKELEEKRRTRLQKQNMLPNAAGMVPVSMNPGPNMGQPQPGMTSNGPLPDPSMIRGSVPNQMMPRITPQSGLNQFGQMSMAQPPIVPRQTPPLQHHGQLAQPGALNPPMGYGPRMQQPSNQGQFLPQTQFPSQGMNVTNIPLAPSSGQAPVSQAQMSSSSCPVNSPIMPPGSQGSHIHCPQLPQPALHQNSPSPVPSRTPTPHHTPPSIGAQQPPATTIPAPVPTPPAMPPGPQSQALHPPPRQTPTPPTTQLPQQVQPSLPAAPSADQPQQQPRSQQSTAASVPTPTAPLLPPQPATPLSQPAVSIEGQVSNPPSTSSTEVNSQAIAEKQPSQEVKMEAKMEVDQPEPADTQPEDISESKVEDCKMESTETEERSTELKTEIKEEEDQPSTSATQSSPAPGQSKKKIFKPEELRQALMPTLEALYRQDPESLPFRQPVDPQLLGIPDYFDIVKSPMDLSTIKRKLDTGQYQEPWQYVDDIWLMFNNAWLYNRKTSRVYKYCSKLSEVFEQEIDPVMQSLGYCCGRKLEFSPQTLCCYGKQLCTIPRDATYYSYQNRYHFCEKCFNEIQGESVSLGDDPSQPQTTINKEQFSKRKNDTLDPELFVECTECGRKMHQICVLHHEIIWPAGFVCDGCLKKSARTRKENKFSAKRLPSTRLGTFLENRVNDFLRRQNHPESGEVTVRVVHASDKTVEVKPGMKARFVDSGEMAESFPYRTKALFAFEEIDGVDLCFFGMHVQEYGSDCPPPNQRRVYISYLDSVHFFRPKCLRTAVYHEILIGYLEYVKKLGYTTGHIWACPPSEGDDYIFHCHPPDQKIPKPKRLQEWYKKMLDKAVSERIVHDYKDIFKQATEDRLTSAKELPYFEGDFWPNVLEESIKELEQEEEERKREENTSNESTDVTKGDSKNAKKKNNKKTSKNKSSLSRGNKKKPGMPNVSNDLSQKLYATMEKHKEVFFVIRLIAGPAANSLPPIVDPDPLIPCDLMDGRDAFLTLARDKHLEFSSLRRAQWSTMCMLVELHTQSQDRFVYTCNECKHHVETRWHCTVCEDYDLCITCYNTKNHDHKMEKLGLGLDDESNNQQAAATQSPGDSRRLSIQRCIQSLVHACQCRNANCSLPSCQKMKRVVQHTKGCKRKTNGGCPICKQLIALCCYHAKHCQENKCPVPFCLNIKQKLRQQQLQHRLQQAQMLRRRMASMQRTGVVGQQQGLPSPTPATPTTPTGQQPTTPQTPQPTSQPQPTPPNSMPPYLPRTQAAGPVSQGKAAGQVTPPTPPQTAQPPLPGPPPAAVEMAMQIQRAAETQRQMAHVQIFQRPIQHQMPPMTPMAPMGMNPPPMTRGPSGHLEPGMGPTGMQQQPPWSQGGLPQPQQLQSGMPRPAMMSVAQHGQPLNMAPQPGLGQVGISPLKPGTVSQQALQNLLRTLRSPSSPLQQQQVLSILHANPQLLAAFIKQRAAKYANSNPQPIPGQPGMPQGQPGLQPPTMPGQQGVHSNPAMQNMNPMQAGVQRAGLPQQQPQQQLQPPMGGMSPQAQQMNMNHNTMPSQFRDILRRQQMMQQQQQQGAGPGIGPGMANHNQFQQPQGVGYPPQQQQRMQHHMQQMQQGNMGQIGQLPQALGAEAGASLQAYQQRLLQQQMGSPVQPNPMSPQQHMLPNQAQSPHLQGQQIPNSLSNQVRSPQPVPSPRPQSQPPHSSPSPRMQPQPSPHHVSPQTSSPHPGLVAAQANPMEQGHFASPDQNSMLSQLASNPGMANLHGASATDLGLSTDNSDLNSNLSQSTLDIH

Broadly, the IC50 is the concentration needed to halve the response being measured. In the case of `CNC(=O)N1CCc2c(c(N3CCCc4cc(-c5cnn(CC(=O)NCCOCCC(=O)N[C@H](C(=O)N6C[C@H](O)C[C@H]6C(=O)NCc6ccc(-c7scnc7C)cc6)C(C)(C)C)c5)c(C(F)F)cc43)nn2C2CCOCC2)C1` [P-074, 3-(7-(difluoromethyl)-6-(1-(2-((2-(3-(((S)-1-((2S,4R)-4-hydroxy-2-((4-(4-methylthiazol-5-yl)benzyl)carbamoyl)pyrrolidin-1-yl)-3,3-dimethyl-1-oxobutan-2-yl)amino)-3-oxopropoxy)ethyl)amino)-2-oxoethyl)-1H-pyrazol-4-yl)-3,4-dihydroquinolin-1(2H)-yl)-N-methyl-1-(tetrahydro-2H-pyran-4-yl)-1,4,6,7-tetrahydro-5H-pyrazolo[4,3-c]pyridine-5-carboxamide], the concentration for half-maximal inhibition (IC50) in assay [1] (Table 3) was over 10000 nM. Moreover, the inhibition at 0.01 µM at P300 (p300, 10 nM, Table 3) is under 20%.

`CNC(=O)N1CCc2c(c(N3CCCc4cc(-c5cnn(C)c5)c(C(F)F)cc43)nn2C2CCN(C(=O)CCCCCCn3c(=O)n(C4CCC(=O)NC4=O)c4ccccc43)CC2)C1` (centres unmarked) [P-106, 3-(7-(difluoromethyl)-6-(1-methyl-1H-pyrazol-4-yl)-3,4-dihydroquinolin-1(2H)-yl)-1-(1-(7-(3-(2,6-dioxopiperidin-3-yl)-2-oxo-2,3-dihydro-1H-benzo[d]imidazol-1-yl)heptanoyl)piperidin-4-yl)-N-methyl-1,4,6,7-tetrahydro-5H-pyrazolo[4,3-c]pyridine-5-carboxamide]: the IC50 in assay [1] (Table 3) amounted to 24.2 nM. Besides, at P300 (p300, 10 nM, Table 3), the “Degradation (10 nM)” value is “B (B: 50% ≤ Degradation < 80%)”.

For `CC(=O)N1CCc2c(c(N3CCCc4cc(-c5cnn(C)c5)c(C(F)F)cc43)nn2C2CCN(C(=O)CCCCCn3c(=O)n(C4CCC(=O)NC4=O)c4ccccc43)CC2)C1` (centres unmarked) [P-107, 3-(3-(6-(4-(5-acetyl-3-(7-(difluoromethyl)-6-(1-methyl-1H-pyrazol-4-yl)-3,4-dihydroquinolin-1(2H)-yl)-4,5,6,7-tetrahydro-1H-pyrazolo[4,3-c]pyridin-1-yl)piperidin-1-yl)-6-oxohexyl)-2-oxo-2,3-dihydro-1H-benzo[d]imidazol-1-yl)piperidine-2,6-dione], in assay [1] (Table 3), it took 20.4 nM to reach half-maximal inhibition (IC50). Further, the “Degradation (10 nM)” value at P300 (p300, 10 nM, Table 3) is recorded as “B (B: 50% ≤ Degradation < 80%)”.

In turn, `CC(=O)N1CCc2c(c(N3CCCc4cc(-c5cnn(C)c5)c(C(F)F)cc43)nn2C2CCN(C(=O)CCCCCCCn3c(=O)n(C4CCC(=O)NC4=O)c4ccccc43)CC2)C1` (centres unmarked) [P-135, 3-(3-(8-(4-(5-acetyl-3-(7-(difluoromethyl)-6-(1-methyl-1H-pyrazol-4-yl)-3,4-dihydroquinolin-1(2H)-yl)-4,5,6,7-tetrahydro-1H-pyrazolo[4,3-c]pyridin-1-yl)piperidin-1-yl)-8-oxooctyl)-2-oxo-2,3-dihydro-1H-benzo[d]imidazol-1-yl)piperidine-2,6-dione] displayed a concentration for half-maximal inhibition (IC50) in assay [1] (Table 3) of 0.7 nM. The “Degradation (10 nM)” value on P300 (p300, 10 nM, Table 3) is recorded as “A (A: Degradation ≥ 80%)”.

On to `CC(=O)N1CCc2c(c(N3CCCc4cc(-c5cnn(C)c5)c(C(F)F)cc43)nn2C2CCN(CCN3CCC(CNc4cccc5c4C(=O)N(C4CCC(=O)NC4=O)C5=O)CC3)CC2)C1` (centres unmarked) [P-143, 4-(((1-(2-(4-(5-acetyl-3-(7-(difluoromethyl)-6-(1-methyl-1H-pyrazol-4-yl)-3,4-dihydroquinolin-1(2H)-yl)-4,5,6,7-tetrahydro-1H-pyrazolo[4,3-c]pyridin-1-yl)piperidin-1-yl)ethyl)piperidin-4-yl)methyl)amino)-2-(2,6-dioxopiperidin-3-yl)isoindoline-1,3-dione], for which it took 1.5 nM to reach half-maximal inhibition in assay [1] (Table 3) (IC50). For the same compound, the “Degradation (10 nM)” value at P300 (p300, 10 nM, Table 3) is reported as “A (A: Degradation ≥ 80%)”.

`CC(=O)N1CCc2c(c(N3CCCc4cc(-c5cnn(C)c5)c(C(F)F)cc43)nn2C2CCN(C(=O)CCCCCCCCn3c(=O)n(C4CCC(=O)NC4=O)c4ccccc43)CC2)C1` (centres unmarked) [P-163, 3-(3-(9-(4-(5-acetyl-3-(7-(difluoromethyl)-6-(1-methyl-1H-pyrazol-4-yl)-3,4-dihydroquinolin-1(2H)-yl)-4,5,6,7-tetrahydro-1H-pyrazolo[4,3-c]pyridin-1-yl)piperidin-1-yl)-9-oxononyl)-2-oxo-2,3-dihydro-1H-benzo[d]imidazol-1-yl)piperidine-2,6-dione] yielded an IC50 in assay [1] (Table 3) of 0.9 nM. In addition, on P300 (p300, 10 nM, Table 3), the “Degradation (10 nM)” value is given as “A (A: Degradation ≥ 80%)”.

Consider `CC(=O)N1CCc2c(c(N3CCCc4cc(-c5cnn(C)c5)c(C(F)F)cc43)nn2C2CCN(CCN3CCC(COc4cccc5c4C(=O)N(C4CCC(=O)NC4=O)C5=O)CC3)CC2)C1` (centres unmarked) [P-167, 4-((1-(2-(4-(5-acetyl-3-(7-(difluoromethyl)-6-(1-methyl-1H-pyrazol-4-yl)-3,4-dihydroquinolin-1(2H)-yl)-4,5,6,7-tetrahydro-1H-pyrazolo[4,3-c]pyridin-1-yl)piperidin-1-yl)ethyl)piperidin-4-yl)methoxy)-2-(2,6-dioxopiperidin-3-yl)isoindoline-1,3-dione], for which the half-inhibitory concentration (IC50) in assay [1] (Table 3) is 92 nM. Also, on P300 (p300, 10 nM, Table 3), the “Degradation (10 nM)” value is “D (D: Degradation < 20%)”.

`CC(=O)N1CCc2c(c(N3CCCc4cc(-c5cnn(C)c5)c(C(F)F)cc43)nn2C2CCN(CCN3CCC(C4CN(c5cccc6c5C(=O)N(C5CCC(=O)NC5=O)C6=O)C4)CC3)CC2)C1` (centres unmarked) [P-187, 4-(3-(1-(2-(4-(5-acetyl-3-(7-(difluoromethyl)-6-(1-methyl-1H-pyrazol-4-yl)-3,4-dihydroquinolin-1(2H)-yl)-4,5,6,7-tetrahydro-1H-pyrazolo[4,3-c]pyridin-1-yl)piperidin-1-yl)ethyl)piperidin-4-yl)azetidin-1-yl)-2-(2,6-dioxopiperidin-3-yl)isoindoline-1,3-dione] came in with an IC50 in assay [1] (Table 4) of 2.3 nM. The inhibition at 0.01 µM at P300 was over 80%.

`CC(=O)N1CCc2c(c(N3CCCc4cc(-c5cnn(C)c5)c(C(F)F)cc43)nn2C2CCN(CCN3CCC(CCNc4cccc5c4C(=O)N(C4CCC(=O)NC4=O)C5=O)CC3)CC2)C1` (centres unmarked) [P-188, 4-((2-(1-(2-(4-(5-acetyl-3-(7-(difluoromethyl)-6-(1-methyl-1H-pyrazol-4-yl)-3,4-dihydroquinolin-1(2H)-yl)-4,5,6,7-tetrahydro-1H-pyrazolo[4,3-c]pyridin-1-yl)piperidin-1-yl)ethyl)piperidin-4-yl)ethyl)amino)-2-(2,6-dioxopiperidin-3-yl)isoindoline-1,3-dione] yielded a concentration for half-maximal inhibition (IC50) in assay [1] (Table 4) of 2.3 nM. The inhibition at 0.01 µM at P300 was over 80%.

`CC(=O)N1CCc2c(c(N3CCCc4cc(-c5cnn(C)c5)c(C(F)F)cc43)nn2C2CCN(CCN3CCOC(COc4cccc5c4C(=O)N(C4CCC(=O)NC4=O)C5=O)C3)CC2)C1` (centres unmarked) [P-189, 4-((4-(2-(4-(5-acetyl-3-(7-(difluoromethyl)-6-(1-methyl-1H-pyrazol-4-yl)-3,4-dihydroquinolin-1(2H)-yl)-4,5,6,7-tetrahydro-1H-pyrazolo[4,3-c]pyridin-1-yl)piperidin-1-yl)ethyl)morpholin-2-yl)methoxy)-2-(2,6-dioxopiperidin-3-yl)isoindoline-1,3-dione] returned an IC50 in assay [1] (Table 4) of 38 nM. Besides, the inhibition at 0.01 µM on P300 is over 80%.

(Values after patent publication US20240100170A1, “CYCLIC-AMP RESPONSE ELEMENT BINDING PROTEIN (CBP) AND/OR ADENOVIRAL E1A BINDING PROTEIN OF 300 KDA (P300) DEGRADATION COMPOUNDS AND METHODS OF USE” (CULLGEN (SHANGHAI), INC., priority 2020, published 2024).)
